Test results as given in patent publication US6652479B2, “Method and apparatus for transcutaneous infusion of carbon dioxide for local relief of pain and other ailments” (Capnia, Inc., priority 2000, dated 2003).

Columns and labels:
[1] = in vitro rate of CO2 absorption by water-soaked paper towel (funnel / oil bolus apparatus); assay type: physicochemical; settings: 80-cm^2 area test surface, several tests
Method: To determine the inherent rate of absorption and diffusion of CO2 in a “passive” aqueous medium a preliminary in vitro experiment was performed. The apparatus and method employed for measuring the rate of CO2 absorption by a surface is illustrated in FIG. 1. The device was placed on a table top 150, and comprised a source of CO2 in the form of a cylinder 101 and a flow regulator 110, including a pressure regulator 112 and flow meter 113. Polyethylene tubing 115 of approximately 0.2 cm^2 lumen connected the cylinder 101 to a glass funnel 120 having a maximum area of 80 cm^2. An additional length of tubing 125 was used for measurement of changes in gas volume. This gas volume measurement means used in the experiment could be eliminated in a device intended to administer CO2 to a patient's skin surface. The entire system was purged of air by prolonged CO2 flow. The additional length of tubing 125 was purged first, then a bolus of low-volatility (forepump) oil 130 was inserted into its open end and the end plugged. […]
Next, the funnel was placed on test surface 140 of a 0.4-mm thick water-soaked paper towel having about the same thickness as skin. […] The observed initial rate of absorption determined from several such tests fell in the range 0.6-1.2 ml/min, and saturation occurred at 4-10 ml, for the 80-cm^2 area test surface. […]

[2] = test system: muscular-skeletal pain conditions (cervico-cranial syndrome, cervico-brachial syndrome, lumbalgia); settings: cited from earlier work
[3] = test system: skin on the right anterior thigh; experiment: rate of transcutaneous absorption of gaseous CO2 into a human body (funnel on wet skin); assay type: in vivo
Method: To determine the inherent rate of absorption and diffusion of CO2 in a “passive” aqueous medium a preliminary in vitro experiment was performed. The apparatus and method employed for measuring the rate of CO2 absorption by a surface is illustrated in FIG. 1. The device was placed on a table top 150, and comprised a source of CO2 in the form of a cylinder 101 and a flow regulator 110, including a pressure regulator 112 and flow meter 113. Polyethylene tubing 115 of approximately 0.2 cm^2 lumen connected the cylinder 101 to a glass funnel 120 having a maximum area of 80 cm^2. An additional length of tubing 125 was used for measurement of changes in gas volume. This gas volume measurement means used in the experiment could be eliminated in a device intended to administer CO2 to a patient's skin surface. The entire system was purged of air by prolonged CO2 flow. The additional length of tubing 125 was purged first, then a bolus of low-volatility (forepump) oil 130 was inserted into its open end and the end plugged. The funnel 120 was then purged with its open end resting on a portion of the selected test surface 140 immediately adjacent to the portion to be tested, and with the purge flow escaping at its edge. At zero time the purge flow was terminated, the plug in the tube 125 end was removed and the funnel was slid onto the test portion of the surface without breaking the seal between the funnel edge and the wet surface. The displacement of the oil bolus 130 within the 0.20 cm^2 lumen of the tube 125 was then observed as CO2 gas was removed from the closed system via absorption in the surface 140; i.e., each cm of displacement corresponded to absorption of 0.20 cc of gas by 80 cm^2 of test surface.
An area of skin on the right anterior thigh sufficiently large for two positions of the funnel 120 applicator was washed thoroughly and soaked with water for fifteen minutes. The funnel 120 was purged of air by prolonged CO2 flow (for about 10 minutes) while seated on the wet skin in the upper thigh position 160, and then was slid to the lower thigh position 170 at zero time. […] In other words, it appeared that less than <0.1 ml of gas was absorbed. […] Therefore, the inventors concluded that some quantity of CO2, sufficient to cause the observed vascular effects, must have diffused into the skin. Therefore, the inventors continued with their experiments to determine if a transcutaneous application of CO2 would reduce local pain.

allergic rhinitis attack = experiment: treatment of allergic rhinitis by carbonated water nasal spray; assay type: in vivo, human; settings: carbonated water spray and gaseous CO2 infusion used alternately over a day, one subject
Text: Because of the observed similarity of the physiological effects of gaseous CO2 and a […] solution (carbonated water) applied to the skin, the inventors believed that a […] solution might be effective for treatment of upper respiratory indications for which infusion of gaseous CO2 is effective. With reference to FIG. 5, to test this hypothesis, a 70-ml commercially marketed plastic “squeeze” bottle 510 for dispensing a physiological saline spray was 3⁄4 filled with fresh effervescing carbonated water. The carbonated water spray was then sprayed into the nose of a subject 520 who was suffering a mild allergic rhinitis attack. […] During the course of a day as allergic rhinitis attacks reoccurred, the carbonated water spray and gaseous CO2 infusion were used alternately and their relative effectiveness assessed. […] The disagreeable aspects cited were the discomfort associated with a liquid being sprayed up the nose and the messiness of the effluent liquid from the nose after the spray. Nevertheless, the carbonated nasal spray is a distinct alternative for treatment of the upper respiratory distress indications, and shares many of the advantages of a gaseous CO2 infusion treatment including effectiveness, ease of use, rapid relief on demand, unlimited dose, low cost, and freedom from aftereffects and other contraindications associated with the use of drugs. […]

[4] = after subcutaneous injection of 100-200 ml CO2 gas
[5] = of 335 patients treated, 100-200 ml CO2 gas injected under the skin, 10-15 injections over 2-5 weeks

absorbed gas volume at saturation [1]: 4 to 10 mL
initial rate of absorption of gaseous CO2 [1]: 0.6 to 1.2 mL/min
aftereffects ([3]; gaseous CO2 on wet skin): no observed aftereffects
gas absorbed by the skin ([3]; wet skin, 80 cm^2 funnel, about 10 minutes, several tests): < 0.1 mL
SMILES: O=C=O [CO2, carbon dioxide]
diameter of gas emphysemum at injection site [2, 4]: ~8 cm
skin reaction at the injection site [2, 4]: mild hyperemia
time for gas emphysemum and hyperemia to disappear after the injection [2, 4]: 3 to 5 min
patients improved with some remaining distress [2, 5]: 157
patients who became difficulty-free or were substantially improved [2, 5]: 171
patients with no improvement [2, 5]: 7
number of treatments after which improvement of the indicated disorder occurred ([2]; subcutaneous injection of 100-200 ml CO2 gas daily or twice-weekly): 4-5 treatments
skin reaction over region in contact with CO2 ([3]; after about 10 minutes contact with gaseous CO2): a hyperemia was observed
time for reddening to develop in contact with CO2 ([3]; gaseous CO2 on wet skin): three to five
time for reddening to subside after removal of the CO2 ([3]; gaseous CO2 on wet skin): a similar period
relative effectiveness for relief and suppression of allergic rhinitis symptoms (allergic rhinitis attack): equally effective
